Laboratory results as given in patent US20180118721A1, “PYRIMIDINE DERIVATIVES” (Merck Patent GmbH, priority 2015, published 2018).
Like-named read-outs stand apart in the source and are kept apart here.

Experiments:
[1] = target: T1, purified human recombinant MTH1 (human MTH1, residues 42-197) (Homo sapiens, UniProt P36639); assay: MTH1 enzymatic assay (luminescence-based, PPiLight); type: biochemical; details: 6 μM 8-oxo-dGTP, Table 1, grouped
T1 construct: human MTH1, residues 42-197, Uniprot-ID: P36639, expressed in E. coli; made in house; host or cells: E. coli
Method: The IC50 value was determined by a MTH1 enzymatic assay. The assay comprises the principal steps of incubating a mixture of MTH1, the compound in question at different concentrations and 8-oxo-2′-deoxyguanosine-5′-triphosphate (8-oxo-dGTP) in assay buffer. Nucleotide triphosphate hydrolysis by MTH1, i.e. decomposition of 8-oxo-2′-deoxyguanosine-5′-triphosphate, produces 8-oxo-2′-deoxyguanosine-5′-monophosphate (8-oxo-dGMP) and pyrophosphate (PPi). The amount of generated pyrophosphate (PPi) is then measured by a bioluminescent reaction. In detail: The MTH1 (human mutT homologue 1) enzymatic assay is performed as a luminescence-based 384-well assay. […] The assay buffer contains 100 mM Tris-acetate pH 7.5, 40 mM NaCl, 10 mM Mg(OAc)2, 0.005% Tween 20 and 2 mM dithiothreitol (DTT). […] Then, in a second step, the substrate 8-oxo-dGTP is added and the reaction mixture is incubated for 30 minutes at 22° C. The pharmacologically relevant assay volume is 5 PI. The final concentrations in the assay during incubation of the reaction mixture are 0.1-0.2 nM, typically 0.1 nM, MTH1 and 6 μM 8-oxo-dGTP. After incubation of the reaction mixture, the generation of pyrophosphate (PPi) as a result of nucleotide triphosphate (8-oxo-dGTP) hydrolysis by MTH1 is detected using the PPiLight inorganic pyrophosphate assay kit (Lonza) (third step). 2 to 5 μl, such as 3 to 5 μl, typically 3 or 4 μl, for instance 4 μl, of a 1:1 mixture of PPiLight converting reagent (AMP) and PPiLight detection reagent are added to the reaction mixture. In the presence of pyrophosphate, the detection reagent catalyzes the conversion of AMP to ATP. Luciferase then produces light from the newly formed ATP and luciferin. The amount of light produced is directly proportional to the amount of PPi in the sample. Following signal development for 1 h the plates are analysed in an EnVision (PerkinElmer) microplate reader using the ultra sensitive luminescence option. Data are processed employing the Genedata Screener software. In particular, IC50 values are determined in the usual manner (using the Hill Equation) by fitting a dose-response curve to the data points using nonlinear regression analysis.
Hill Equation: Y=S0+(Sinf−S0)/(1+(10^logIC50/10^c)^n); Y: luminescence signal (response), S0: activity level at zero concentration of test compound, Sinf=activity level at infinite concentration, Hill coefficient n=measure of the slope at IC50, c=concentration in logarithmic units corresponding to the values on the x-axis of the dose response curve plot

[2] = target: T2, humanMTH1 (aminoacids 42 to 197) (Homo sapiens, UniProt P36639); assay: Binding affinities and kinetics on MTH1 surfaces by surface plasmon resonance (SPR); details: for Kd: SPR, Biacore4000, 25° C., Table 1, grouped, read-out: KD IC50; for residence time: on MTH1, calculated on the basis of the KD values
T2 construct: humanMTH1 (aminoacids 42 to 197); His tag at the N-terminus; purchased Abnova ab99390; host or cells: E. coli
Method: The SPR experiments were performed using a Biacore4000 instrument. […] HumanMTH1 was immobilized on Biacore CM5 chips at 25° C. and a flow rate of 10 μL/min using amine coupling at pH 5.5 and in presence of 1 μM MSC2567771B-1 according to Biacore's standard protocol. MTH1 was applied at a concentration of 10 μg/mL and depending on the duration of the injection time immobilization levels between 500 and 2,000 RU were obtained. Sample compounds were applied in form of titration series with a doubling of concentration at each subsequent injection. In general, 10 concentrations were injected covering a dilution range of 500 fold. Before and after each of these titration series the binding capability of the surface was controlled by the injection of the positive control S-Crizotinib at a fixed concentration of 2 μM. Kinetic titration experiments were performed at 25° C. with a flow rate of 30 μL/min, a sample contact time of 90 sec and a dissociation time of 420 sec in running buffer (20 mM Tris-HCl (Tris(hydroxymethyl)-aminomethane HCl) pH 7.40, 150 mM NaCl, 5 mM MgCl2, 1 mM DTT (dithiothreitol), 0.1 mM EGTA (ethylene glycol tetraacetic acid), 0.05% Tween 20) containing 2% DMSO (dimethyl sulfoxide). Buffer injections identical to the sample injections were executed at the beginning of the successive series for the purpose of double referencing. Solvent correction cycles (eight correction points, 1.4%-2.8% DMSO) were run at the same intervals. For surface conditioning ten start-up cycles (buffer injections) were run. Data points were collected at a sample rate of 10 Hz.
Data sets were processed and analyzed using the software Biacore4000 Evaluation, version 1.0. Solvent corrected and double-referenced association and dissociation phase data were fitted to a simple 1:1 interaction model with mass transport limitations.
Measured values are indicated as KD IC50 in the Table below.

Row | IC50 [1] [nM] | Kd [2] [nM] | Structure (SMILES) | residence time [2] [min] | residence time ([2]; read-out: Residence time) [min]
1 | < 1 | 1 to 100 | Nc1nc(NC2CC2)cc(N2CCCC2Cc2ccccc2)n1 (stereo not drawn) [Example 34, 6-(2-Benzyl-pyrrolidin-1-yl)-N4-cyclopropyl-pyrimidine-2,4-diamine] | – | –
2 | 1 to 100 | 1 to 100 | C=CC(=O)Nc1ccc(CCNC(=O)C2CN(c3cc(NC)nc(N)n3)C2)cc1 [Example 118, 1-(2-Amino-6-methylamino-pyrimidin-4-yl)-azetidine-3-carboxylic acid [2-(4-acryloylamino-phenyl)-ethyl]-amide] | – | –
3 | 1 to 100 | 1 to 100 | C=CC(=O)Nc1ccc(CCNC(=O)C2CCN(c3cc(NC)nc(N)n3)CC2)cc1 [Example 113, 1-(2-Amino-6-methylamino-pyrimidin-4-yl)-piperidine-4-carboxylic acid [2-(4-acryloylamino-phenyl)-ethyl]-amide] | – | –
4 | 1 to 100 | 1 to 100 | Nc1nc(NC2CC2)cc(N2CC[C@](O)(C(F)(F)F)C2)n1 [Example 50, (R)-1-(2-Amino-6-cyclopropylamino-pyrimidin-4-yl)-3-trifluoromethyl-pyrrolidin-3-ol] | – | –
5 | 1 to 100 | 1 to 100 | C[C@@]1(O)CCN(c2cc(NC3CC3)nc(N)n2)C1 [Example 52, (R)-1-(2-Amino-6-cyclopropylamino-pyrimidin-4-yl)-3-methyl-pyrrolidin-3-ol] | – | –
6 | > 100 | > 100 | Nc1nc(NC2CC2)cc(N2CCCC2=O)n1 [Example 94, 1-(2-Amino-6-cyclopropylamino-pyrimidin-4-yl)-pyrrolidin-2-one] | – | –
7 | 1 to 100 | 1 to 100 | CC1CC2CCCCC2N1c1cc(NC2CC2)nc(N)n1 (stereo not drawn) [Example 31, N4-Cyclopropyl-6-(2-methyl-octahydro-indol-1-yl)-pyrimidine-2,4-diamine] | – | –
8 | 1 to 100 | 1 to 100 | CC1CCCN1c1cc(NC2CC2)nc(N)n1 (stereo not drawn) [Example 33, N4-Cyclopropyl-6-(2-methyl-pyrrolidin-1-yl)-pyrimidine-2,4-diamine] | – | –
9 | 1 to 100 | > 100 | Nc1nc(NC2CC2)cc(N2CCCC2CC(=O)O)n1 (stereo not drawn) [Example 97, [1-(2-Amino-6-cyclopropylamino-pyrimidin-4-yl)-pyrrolidin-2-yl]acetic acid] | – | –
10 | 1 to 100 | 1 to 100 | CNc1cc(N2CC(Cc3ccccc3)CC2=O)nc(N)n1 (stereo not drawn) [Example 115, 1-(2-Amino-6-methylamino-pyrimidin-4-yl)-4-benzyl-pyrrolidin-2-one] | – | –
11 | 1 to 100 | 1 to 100 | Nc1nc(NC2CC2)cc(N2CC[C@@H](O)C2)n1 [Example 29, (R)-1-(2-Amino-6-cyclopropylamino-pyrimidin-4-yl)-pyrrolidin-3-ol] | – | –
12 | 1 to 100 | 1 to 100 | Nc1nc(NC2CC2)cc(N2CCCC2c2ccccc2)n1 (stereo not drawn) [Example 30, N4-Cyclopropyl-6-(2-phenyl-pyrrolidin-1-yl)-pyrimidine-2,4-diamine] | – | –
13 | < 1 | < 1 | Nc1nc(NC2CC2)cc(N2CCC[C@@H]2Cc2ccccc2Cl)n1 [Example 47, 6-[(R)-2-(2-Chloro-benzyl)-pyrrolidin-1-yl]-N4-cyclopropyl-pyrimidine-2,4-diamine] | – | –
14 | 1 to 100 | 1 to 100 | CCCCOC(=O)CC1CCCN1c1cc(NC2CC2)nc(N)n1 (stereo not drawn) [Example 87, [1-(2-Amino-6-cyclopropylamino-pyrimidin-4-yl)-pyrrolidin-2-yl]-acetic acid butyl ester] | – | –
15 | 1 to 100 | – | Nc1nc(NC2CC2)cc(N2CC[C@@](O)(c3ccccc3)C2)n1 (single isomer, unassigned) [Example 38] | – | –
16 | 1 to 100 | – | Nc1nc(NC2CC2)cc(N2CCC(O)(C(F)(F)F)C2)n1 (stereo not drawn) [Example 42, 1-(2-Amino-6-cyclopropylamino-pyrimidin-4-yl)-3-trifluoromethyl-pyrrolidin-3-ol] | – | –
17 | 1 to 100 | – | COC1CCN(c2cc(NC3CC3)nc(N)n2)C1 (stereo not drawn) [Example 10, N^4-cyclopropyl-6-(3-methoxy-pyrrolidin-1-yl)-pyri midine-2,4-diamine-formate] | – | –
18 | 1 to 100 | – | CC1CCN(c2cc(NC3CC3)nc(N)n2)C1C (stereo not drawn) [Example 39, N4-Cyclopropyl-6-(2,3-dimethyl-pyrrolidin-1-yl)-pyrimidine-2,4-diamine] | – | –
19 | > 100 | – | NC(=O)[C@@H]1CCN(c2nc(N)nc3c2CCCN3)C1 [Example 75, (R)-1-(2-Amino-5,6,7,8-tetrahydro-pyrido[2,3-d]pyrimidin-4-yl)-pyrrolidine-3-carboxylic acid amide-trifluoroacetate] | – | –
20 | 1 to 100 | – | NC(=O)[C@@H]1CCN(c2cc(NC3CC3)nc(N)n2)C1 [Example 59, (R)-1-(2-Amino-6-cyclopropylamino-pyrimidin-4-yl)-pyrrolidine-3-carboxylic acid amide] | – | –
21 | 1 to 100 | – | CNc1cc(N2CCC[C@@](O)(c3ccccc3)C2)nc(N)n1 (single isomer, unassigned) [Example 90] | – | –
22 | 1 to 100 | – | CNc1cc(N2CCC[C@H]2CO)nc(N)n1 [Example 12, [(S)-1-(2-amino-6-methylamino-pyrimidin-4-yl)-pyrrolidin-2-yl]-methanol] | – | –
23 | < 1 | – | CNc1cc(N2CCCC2Cc2ccccc2OC)nc(N)n1 (stereo not drawn) [Example 82, 6-[2-(2-Methoxy-benzyl)-pyrrolidin-1-yl]-N4-methyl-pyrimidine-2,4-diamine] | – | –
24 | 1 to 100 | – | Nc1nc(NC2CC2)cc(N2CC[C@H](CO)C2)n1 [Example 67, [(S)-1-(2-Amino-6-cyclopropylamino-pyrimidin-4-yl)-pyrrolidin-3-yl]-methanol] | – | –
25 | < 1 | – | Nc1nc(NC2CC2)cc(N2CCC(CO)C2)n1 (stereo not drawn) [Example 2, [1-(2-amino-6-cyclopropyl amino-pyrimidin-4-yl)-pyrrolidin-3-yl]-methanol] | – | –
26 | < 1 | – | CNc1cc(N2CCC[C@@H]2Cc2ccccc2OC)nc(N)n1 [Example 93, 6-[(R)-2-(2-Methoxy-benzyl)-pyrrolidin-1-yl]-N4-methyl-pyrimidine-2,4-diamine] | – | –

Row | Structure (SMILES) | IC50 [1] [nM] | Kd [2] [nM] | residence time [2] [min] | residence time ([2]; read-out: Residence time) [min]
27 | CNc1cc(N2CC(C(=O)NCCc3ccc(S(=O)(=O)F)cc3)C2)nc(N)n1 [Example 108, 4-(2-{[1-(2-Amino-6-methylamino-pyrimidin-4-yl)-azetidine-3-carbonyl]-amino}-ethyl)-benzenesulfonyl fluoride] | < 1 | – | ≥ 10 | –
28 | CNc1cc(N2CCCCC2Cc2ccc(OC)cc2)nc(N)n1 (stereo not drawn) [Example 95, 6-[2-(4-Methoxy-benzyl)-piperidin-1-yl]-N4-methyl-pyrimidine-2,4-diamine] | < 1 | – | – | ≥ 10
29 | CNc1cc(N2CCCCC2Cc2ccccc2OC)nc(N)n1 (single isomer, unassigned) [Example 107] | 1 to 100 | 1 to 100 | – | –
30 | CNc1cc(N2CCC[C@H]2Cc2ccccc2OC)nc(N)n1 [Example 92, 6-[(S)-2-(2-Methoxy-benzyl)-pyrrolidin-1-yl]-N4-methyl-pyrimidine-2,4-diamine] | < 1 | – | – | ≥ 10
